From ChEMBL document CHEMBL1201862, “PubChem BioAssay data set” (2004) come the findings set out here.

Active and inactive are the calls of the source.

In test [1] the target is Luciferin 4-monooxygenase (Photinus pyralis, UniProt P08659). The experiment in a line: inhibition of purified Photinus pyralis luciferase – biochemical, luminescence, dose response (AID 1891).
The nature of test [2]: DRD fibroblast viability loss – cell-based, non-viral oncogenic, luminescence, dose response (AID 1934). Conditions: Homo sapiens. Type of test: functional.
A short description of test [3]: A549 cell cytotoxicity, dose response, cytotoxicity control, plate reader, cherry-pick, antagonist series (AID 743412). The test is classed as functional, cell-based.
The nature of test [4]: toxicity toward HepG2 liver cells – cell-based, plate reader, cherry-pick, antagonist series, cytotoxicity control, dose response (AID 743416). The test is classed as functional.
Test [5] is described as follows: alpha-synuclein stem-loop luciferase translation blockers – H4 neuroglioma cells, luminescence, confirmation (AID 1988). Type of test: functional, cell-based.
The test system of test [6] is BJ. In words: BJ-TERT-LT-ST fibroblast viability loss – cell-based, RAS-independent, luminescence, dose response (AID 1935).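 Note: BJ fibroblasts immortalized with TERT plus LT and ST oncogenes.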 Type of test: functional. Conditions: Homo sapiens.
Test [7] can be described thus: blockade of melanocortin 4 receptor signaling – cell-based, plate reader, cherry pick, counter-screen for LGR2 antagonist project, dose response (AID 743444).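 Note: transfected HEK 293 cells stimulated with alpha-MSH peptide; potency of inhibitors of the alpha-MSH evoked signal.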 Type of test: functional. On the technique in general: A counterscreen serves to expose hits that act by an unwanted route or on another target.
A short description of test [8]: Luminescence Cell-Based Dose Confirmation HTS to Identify Inhibitors of Platelet Dense Granule Release. [Related pubchem assays: 1663 (Primary HTS), 1678 (Summary of Project)]. Type of test: functional.
Test [9] can be described thus: viability loss in HEK293 cells – cell-based, plate reader, cherry-picked samples, cytotoxicity control, dose response (AID 743446). Type of test: functional.
Test [10] concerns BJ. In words: BJ-TERT fibroblast viability loss – cell-based, RAS-independent, luminescence, dose response (AID 1933). The test is classed as functional. Conditions: Homo sapiens.
In test [11] the test system is BJ. In words: cells. Type of test: functional, cell-based. Conditions: Homo sapiens.
Test [12] can be described thus: luciferase reporter signal suppression in cells – H4 neuroglioma cells, luminescence, dose response (AID 1990). Type of test: functional, cell-based. On the technique in general: A reporter such as luciferase makes a cellular process visible.
Test [13] is described as follows: Luminescence-based counterscreen assay for KLF5 inhibitors: dose response cell-based high throughput screening assay to identify cytotoxic compounds using the IEC-6 intestinal epithelial cell line. [Related pubchem assays: 1700 (Primary screen.), 1834 (Confirmation screen.), 1858 (Summary AID.), 1905 (Counterscreen.)]. The test is classed as functional.
A short description of test [14]: blockers of bursicon-stimulated LGR2 cAMP reporter – cell-based, HEK293, CRE-luciferase reporter, cherry pick, set 2, dose response (AID 743343).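 Note: transfected cells were stimulated with diluted bursicon conditioned medium after compound addition.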 The test is classed as functional.
In test [15] the target is Induced myeloid leukemia cell differentiation protein Mcl-1 (Homo sapiens, UniProt Q07820). The experiment in a line: blockers of MCL1 binding to BIM peptide – biochemical, fluorescence polarization, BIM-BH3 peptide, 1536-well, dose response (AID 2217). (In general: Polarisation of emitted light reports the rotation of a fluorescent probe.)
Sequence of Induced myeloid leukemia cell differentiation protein Mcl-1 (Q07820 whole entry): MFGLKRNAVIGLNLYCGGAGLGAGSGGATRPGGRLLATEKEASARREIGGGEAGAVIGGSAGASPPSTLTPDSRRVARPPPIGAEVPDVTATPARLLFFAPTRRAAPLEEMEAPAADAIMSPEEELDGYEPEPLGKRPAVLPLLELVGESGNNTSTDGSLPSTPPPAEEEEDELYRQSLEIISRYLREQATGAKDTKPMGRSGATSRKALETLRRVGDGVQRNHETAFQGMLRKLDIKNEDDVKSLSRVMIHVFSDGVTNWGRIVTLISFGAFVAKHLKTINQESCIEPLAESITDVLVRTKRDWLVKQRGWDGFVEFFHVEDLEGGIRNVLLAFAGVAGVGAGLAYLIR
For the next test, the target named is Bcl-2-like protein 1 (Homo sapiens, UniProt Q07817). In words: blockers of BCLXL peptide binding – biochemical, fluorescence polarization, 1536-well, selectivity assay for MCL1 inhibitor project, dose response (AID 2218).
A further test has as its target T1, Leucine aminopeptidase (Plasmodium falciparum 3D7, UniProt Q8IL11).
T1 sequence (Q8IL11 whole entry): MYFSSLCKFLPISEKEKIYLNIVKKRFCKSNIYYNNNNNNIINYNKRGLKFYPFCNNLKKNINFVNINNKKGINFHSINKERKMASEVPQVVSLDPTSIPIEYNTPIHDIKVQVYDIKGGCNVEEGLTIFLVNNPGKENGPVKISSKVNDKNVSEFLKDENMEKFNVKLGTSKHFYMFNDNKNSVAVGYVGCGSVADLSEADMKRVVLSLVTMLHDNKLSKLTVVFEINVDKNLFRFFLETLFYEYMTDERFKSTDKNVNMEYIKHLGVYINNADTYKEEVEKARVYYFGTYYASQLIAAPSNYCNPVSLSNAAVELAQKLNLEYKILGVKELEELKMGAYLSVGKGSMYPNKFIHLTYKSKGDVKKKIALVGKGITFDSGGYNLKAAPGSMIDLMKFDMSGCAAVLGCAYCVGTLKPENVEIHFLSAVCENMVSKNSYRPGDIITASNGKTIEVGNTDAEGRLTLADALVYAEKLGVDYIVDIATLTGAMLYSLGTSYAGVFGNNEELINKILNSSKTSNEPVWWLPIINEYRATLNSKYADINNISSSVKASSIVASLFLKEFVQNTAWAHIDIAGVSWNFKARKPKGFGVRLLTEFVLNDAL
In words: P. falciparum M17LAP inhibitors, primary screen, biochemical, fluorogenic H-Leu-NHMec substrate, 1536-well (AID 1619). Type of test: functional.

For a further test, the target named is T2, Aspartyl aminopeptidase (Plasmodium falciparum 3D7, UniProt Q8I2J3).
T2 sequence (Q8I2J3 whole entry): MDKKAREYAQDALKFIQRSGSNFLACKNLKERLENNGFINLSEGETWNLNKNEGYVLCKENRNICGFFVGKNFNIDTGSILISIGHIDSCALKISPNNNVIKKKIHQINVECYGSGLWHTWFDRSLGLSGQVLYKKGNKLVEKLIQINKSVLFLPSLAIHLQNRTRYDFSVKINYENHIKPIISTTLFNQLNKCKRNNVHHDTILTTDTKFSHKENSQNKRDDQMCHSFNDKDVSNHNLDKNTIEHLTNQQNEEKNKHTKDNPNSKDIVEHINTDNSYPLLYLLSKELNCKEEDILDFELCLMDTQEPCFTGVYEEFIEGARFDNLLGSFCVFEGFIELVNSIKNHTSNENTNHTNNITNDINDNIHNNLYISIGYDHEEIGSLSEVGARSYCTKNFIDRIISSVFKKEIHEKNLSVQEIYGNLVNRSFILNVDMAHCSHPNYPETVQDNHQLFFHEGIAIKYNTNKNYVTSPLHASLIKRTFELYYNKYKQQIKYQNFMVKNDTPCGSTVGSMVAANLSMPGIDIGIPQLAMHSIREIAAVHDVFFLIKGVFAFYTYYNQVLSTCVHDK
The experiment in a line: Counterscreen for inhibitors of M1 and M17 aminopeptidases: QFRET-based biochemical high throughput dose response assay for inhibitors of the Plasmodium falciparum M18 Aspartyl Aminopeptidase (PFM18AAP). [Related PubChem assays: 1619 (Screening assay (M17LAP inhibitors).), 1445 (Screening assay (M1AAP inhibitors).)].

Another test concerns the target Procathepsin L (Homo sapiens, UniProt P07711). In words: CTSL1 protease inhibition – biochemical, QFRET, 1536-well, counter-screen for M1/M17 aminopeptidase inhibitor project, dose response (AID 2214).
Test [16] addresses T3, Bcl-2-related protein A1 (Mus musculus, UniProt Q07440).
T3 sequence (Q07440 whole entry): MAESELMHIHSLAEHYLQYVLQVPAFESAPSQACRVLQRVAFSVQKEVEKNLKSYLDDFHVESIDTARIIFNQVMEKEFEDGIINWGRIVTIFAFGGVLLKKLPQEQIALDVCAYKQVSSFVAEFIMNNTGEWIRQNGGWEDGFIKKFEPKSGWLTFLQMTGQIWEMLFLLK
In words: small-molecule antagonists of Bfl-1/BH3 interaction – biochemical, TR-FRET, mouse Bfl-1, confirmation (AID 621).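 Note: TR-FRET binding of GST-Bfl-1 to FITC-labelled Bid peptide via terbium antibody.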

Test [17] has as its target Glyceraldehyde-3-phosphate dehydrogenase (Homo sapiens, UniProt P04406).
Test [18] deals with T3, Bcl-2-related protein A1. The experiment in a line: Bfl-1 binding inhibitors, SAR follow-up, biochemical, fluorescence polarization (AID 1070).
Test [19] deals with Peroxisome proliferator-activated receptor gamma/Nuclear receptor coactivator 1 (Homo sapiens, UniProt P37231). Type of test: functional.
The target in test [20] is Peroxisome proliferator-activated receptor gamma/Nuclear receptor coactivator 3 (Homo sapiens, UniProt P37231). The test is classed as functional.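 Note: agonist potency for raising coactivator recruitment to the receptor.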
Sequence of Peroxisome proliferator-activated receptor gamma/Nuclear receptor coactivator 3 (P37231 whole entry): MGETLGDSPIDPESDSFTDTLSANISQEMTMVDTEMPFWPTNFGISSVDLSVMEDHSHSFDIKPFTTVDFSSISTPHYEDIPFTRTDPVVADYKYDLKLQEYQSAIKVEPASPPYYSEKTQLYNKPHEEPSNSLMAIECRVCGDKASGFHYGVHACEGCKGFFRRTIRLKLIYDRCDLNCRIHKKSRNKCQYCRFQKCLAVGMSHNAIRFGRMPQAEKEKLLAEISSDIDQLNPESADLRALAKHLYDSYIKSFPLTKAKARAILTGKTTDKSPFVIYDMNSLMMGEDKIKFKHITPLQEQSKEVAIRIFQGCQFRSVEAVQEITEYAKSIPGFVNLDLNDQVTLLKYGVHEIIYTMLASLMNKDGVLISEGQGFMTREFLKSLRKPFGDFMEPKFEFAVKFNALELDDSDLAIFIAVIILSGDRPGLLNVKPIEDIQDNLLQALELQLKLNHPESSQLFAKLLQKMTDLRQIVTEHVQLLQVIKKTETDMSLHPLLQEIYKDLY
Sequence of Peroxisome proliferator-activated receptor gamma/Nuclear receptor coactivator 3 (Q9Y6Q9 whole entry, further chain): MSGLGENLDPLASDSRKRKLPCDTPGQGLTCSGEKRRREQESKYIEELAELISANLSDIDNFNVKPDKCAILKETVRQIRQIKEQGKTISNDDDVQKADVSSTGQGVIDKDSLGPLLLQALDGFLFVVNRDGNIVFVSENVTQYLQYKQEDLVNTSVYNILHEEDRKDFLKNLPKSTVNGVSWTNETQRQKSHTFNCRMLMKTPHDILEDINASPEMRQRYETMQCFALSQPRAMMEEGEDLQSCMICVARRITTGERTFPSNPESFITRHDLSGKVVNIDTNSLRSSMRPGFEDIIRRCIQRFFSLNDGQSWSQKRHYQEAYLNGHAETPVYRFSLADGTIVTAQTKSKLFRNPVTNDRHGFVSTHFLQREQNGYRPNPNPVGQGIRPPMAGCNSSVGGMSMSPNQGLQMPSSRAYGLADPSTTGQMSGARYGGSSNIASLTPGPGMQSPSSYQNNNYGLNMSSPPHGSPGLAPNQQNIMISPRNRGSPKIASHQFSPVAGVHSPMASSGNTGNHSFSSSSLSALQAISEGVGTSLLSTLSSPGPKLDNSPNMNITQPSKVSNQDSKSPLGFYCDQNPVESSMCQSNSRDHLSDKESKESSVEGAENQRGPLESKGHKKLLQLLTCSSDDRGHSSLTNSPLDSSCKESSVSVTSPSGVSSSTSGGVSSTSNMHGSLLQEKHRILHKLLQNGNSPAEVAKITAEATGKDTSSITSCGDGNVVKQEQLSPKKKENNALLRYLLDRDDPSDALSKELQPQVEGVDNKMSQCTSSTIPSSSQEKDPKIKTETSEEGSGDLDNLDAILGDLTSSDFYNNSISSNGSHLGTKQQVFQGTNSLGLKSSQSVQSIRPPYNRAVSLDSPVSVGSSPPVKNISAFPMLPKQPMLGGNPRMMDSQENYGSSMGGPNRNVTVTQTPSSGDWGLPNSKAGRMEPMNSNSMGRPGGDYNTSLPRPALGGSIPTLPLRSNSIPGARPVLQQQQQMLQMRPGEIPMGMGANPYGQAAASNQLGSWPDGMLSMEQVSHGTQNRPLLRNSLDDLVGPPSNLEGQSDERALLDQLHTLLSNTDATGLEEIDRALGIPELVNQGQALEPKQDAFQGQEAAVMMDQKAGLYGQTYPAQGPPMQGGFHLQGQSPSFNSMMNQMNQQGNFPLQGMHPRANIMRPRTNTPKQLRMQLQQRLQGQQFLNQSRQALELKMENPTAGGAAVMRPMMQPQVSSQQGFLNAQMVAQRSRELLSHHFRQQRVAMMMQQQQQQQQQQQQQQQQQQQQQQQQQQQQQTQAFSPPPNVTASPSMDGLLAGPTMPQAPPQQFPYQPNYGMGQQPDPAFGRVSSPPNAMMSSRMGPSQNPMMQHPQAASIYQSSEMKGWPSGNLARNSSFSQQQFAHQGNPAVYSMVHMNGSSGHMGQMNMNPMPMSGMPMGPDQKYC
Test [21] has as its target Peroxisome proliferator-activated receptor gamma/Nuclear receptor coactivator 2 (Homo sapiens, UniProt P37231). Type of test: functional.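 Note: agonist potency for raising coactivator recruitment to the receptor.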
Test [22] concerns the target FAD-linked sulfhydryl oxidase ALR (Homo sapiens, UniProt P55789). The experiment in a line: ALR-catalysed DTT oxidation blockers – biochemical, H2O2 detection, luminescence, cherry-pick, dose response (AID 493248).
In test [23] the target is Heat shock protein HSP 90-alpha (Homo sapiens, UniProt P07900). Type of test: functional, organism-based.

Sequence of Glyceraldehyde-3-phosphate dehydrogenase (P04406 whole entry): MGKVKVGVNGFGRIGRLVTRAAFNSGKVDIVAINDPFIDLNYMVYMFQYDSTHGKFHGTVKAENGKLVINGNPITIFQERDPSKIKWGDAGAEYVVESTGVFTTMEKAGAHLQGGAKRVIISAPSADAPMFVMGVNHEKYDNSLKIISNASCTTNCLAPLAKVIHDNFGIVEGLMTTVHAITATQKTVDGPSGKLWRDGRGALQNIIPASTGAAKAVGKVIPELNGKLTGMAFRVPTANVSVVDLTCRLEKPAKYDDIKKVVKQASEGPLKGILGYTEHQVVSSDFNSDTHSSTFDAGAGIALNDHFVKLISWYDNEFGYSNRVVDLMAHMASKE
Sequence of Procathepsin L (P07711 whole entry): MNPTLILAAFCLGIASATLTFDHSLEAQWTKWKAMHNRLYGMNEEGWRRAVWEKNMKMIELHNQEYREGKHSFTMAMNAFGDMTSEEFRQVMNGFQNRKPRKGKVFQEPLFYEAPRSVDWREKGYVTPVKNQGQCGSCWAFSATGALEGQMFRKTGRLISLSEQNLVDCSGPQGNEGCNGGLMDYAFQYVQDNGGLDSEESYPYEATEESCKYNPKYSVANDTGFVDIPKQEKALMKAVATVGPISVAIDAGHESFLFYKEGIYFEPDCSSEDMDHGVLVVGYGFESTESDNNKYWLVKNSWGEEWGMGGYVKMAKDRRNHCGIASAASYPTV
Sequence of Peroxisome proliferator-activated receptor gamma/Nuclear receptor coactivator 2 (P37231 whole entry): as the sequence (P37231 whole entry) above
Sequence of Peroxisome proliferator-activated receptor gamma/Nuclear receptor coactivator 2 (Q15596 whole entry, further chain): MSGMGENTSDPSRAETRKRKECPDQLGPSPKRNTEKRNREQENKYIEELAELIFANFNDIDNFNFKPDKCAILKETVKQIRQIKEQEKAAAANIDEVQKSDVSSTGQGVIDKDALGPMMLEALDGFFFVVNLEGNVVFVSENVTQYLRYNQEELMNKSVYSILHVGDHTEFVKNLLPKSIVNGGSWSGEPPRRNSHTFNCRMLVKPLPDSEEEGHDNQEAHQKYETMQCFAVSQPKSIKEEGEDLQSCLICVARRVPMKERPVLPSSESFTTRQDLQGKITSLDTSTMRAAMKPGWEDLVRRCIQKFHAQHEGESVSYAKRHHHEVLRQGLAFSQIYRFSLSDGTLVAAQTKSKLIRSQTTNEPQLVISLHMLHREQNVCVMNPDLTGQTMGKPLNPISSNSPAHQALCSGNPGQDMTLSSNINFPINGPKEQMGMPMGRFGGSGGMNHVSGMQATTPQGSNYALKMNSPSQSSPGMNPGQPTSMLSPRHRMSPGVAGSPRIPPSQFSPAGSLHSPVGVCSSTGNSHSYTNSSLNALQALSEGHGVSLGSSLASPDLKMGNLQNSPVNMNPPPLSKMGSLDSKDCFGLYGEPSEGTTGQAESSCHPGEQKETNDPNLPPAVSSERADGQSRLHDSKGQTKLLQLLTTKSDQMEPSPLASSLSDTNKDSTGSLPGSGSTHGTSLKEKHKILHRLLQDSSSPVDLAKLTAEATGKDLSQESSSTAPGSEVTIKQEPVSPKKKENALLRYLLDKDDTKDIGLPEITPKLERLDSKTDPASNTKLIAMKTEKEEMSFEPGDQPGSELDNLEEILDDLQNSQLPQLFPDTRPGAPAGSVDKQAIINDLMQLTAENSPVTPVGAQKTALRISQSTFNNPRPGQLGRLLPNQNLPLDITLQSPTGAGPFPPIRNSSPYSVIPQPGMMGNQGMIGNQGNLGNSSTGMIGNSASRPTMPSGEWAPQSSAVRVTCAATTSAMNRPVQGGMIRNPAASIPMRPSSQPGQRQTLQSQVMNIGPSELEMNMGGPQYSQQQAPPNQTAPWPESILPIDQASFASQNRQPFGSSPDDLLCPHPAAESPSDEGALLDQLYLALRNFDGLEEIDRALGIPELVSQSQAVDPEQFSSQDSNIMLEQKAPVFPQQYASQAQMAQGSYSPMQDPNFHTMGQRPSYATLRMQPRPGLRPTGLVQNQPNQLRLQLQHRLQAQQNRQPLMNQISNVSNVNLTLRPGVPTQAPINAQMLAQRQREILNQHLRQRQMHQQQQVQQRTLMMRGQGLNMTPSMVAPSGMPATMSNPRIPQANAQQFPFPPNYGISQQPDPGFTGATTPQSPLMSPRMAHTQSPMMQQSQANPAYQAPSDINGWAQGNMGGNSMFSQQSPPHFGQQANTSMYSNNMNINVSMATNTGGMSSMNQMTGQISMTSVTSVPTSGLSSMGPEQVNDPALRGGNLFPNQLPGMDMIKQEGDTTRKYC

Take `CN(C)c1ccc(Nc2nc(N)c3ccccc3n2)cc1`: the EC50 is 1.37 µM (active) in test [1]; 11.8 µM (active) in test [2]; 10.1 µM (inconclusive) in [5]; > 150 µM (inconclusive) with BJ [6]; 234 nM (active) in test [8]; 10.6 µM (active) with BJ [10]. For the same compound, the EC50 with BJ [11] was 12.6 µM (active); in test [12], > 60 µM (inconclusive). The AC50 in test [3] is 23.7 µM (active); in test [4], 22.6 µM (active); in [7] it was 1.89 µM (active); in [9], 24.5 µM (active); in test [14], 1.57 µM (active). The IC50 in test [13] was 19.1 µM (not active).
Regarding `Cc1cc[n+](-c2[n-]c(=O)sc2/C=N/NC(=O)CCn2c3ccccc3c3ccccc32)cc1`, the IC50 in test [15] was 14.1 µM (not active); at Bcl-2-like protein 1, 27.6 µM (not active).
Consider `Cc1ccc(Nc2nnc(SC3CCOC3=O)s2)cc1` (stereo unspecified), for which the IC50 at Leucine aminopeptidase is 1.94 µM (active); at Aspartyl aminopeptidase it was > 73.5 µM (not active); at Procathepsin L, > 59.6 µM (not active).
Consider `COc1ccccc1N1CCN(C2=C(Cl)C(=O)N(c3ccc(Cl)c(Cl)c3)C2=O)CC1`, for which the IC50 on Bcl-2-related protein A1 [16] is 6.25 µM (active); in test [17] it was > 100 µM (not active); on Bcl-2-related protein A1 [18] it was 9.57 µM (active).
As for `CCc1nc(SCc2ccc(F)cc2)[nH]c(=O)c1C#N`, the EC50 in test [19], in test [20] and in [21] was > 79.4 µM (not active) throughout. Further, the AC50 in test [22] is 622 nM (active).
With `O=C1C(Cl)=C(N2CCOCC2)C(=O)N1c1ccc(Cl)c(Cl)c1`, the IC50 at Bcl-2-related protein A1 [16] was 1.29 µM (active); in test [17], > 100 µM (not active); on Bcl-2-related protein A1 [18] it was 1.51 µM (active).
For the compound `CCC1CCc2c(sc(NC(=O)C3CC=CCC3C(=O)O)c2C#N)C1` (stereo unspecified), the figures for the IC50 on Leucine aminopeptidase, at Aspartyl aminopeptidase and against Procathepsin L were < 1 µM (active), > 73.5 µM (not active) and > 59.6 µM (not active), respectively.
With `C/C(=N\Nc1nc2ccccc2s1)c1ccc(Br)s1`, the EC50 in test [19], in test [20] and in [21] was > 79.4 µM (not active) each time. Further, in test [23], the AC50 is 3.85 µM (active).

As a reminder, the EC50 is the concentration giving half of the maximal effect. What is called AC50 is the concentration giving half of the maximal activity seen. Broadly, the IC50 is the point on the concentration scale where inhibition reaches its midpoint.
